Data reported in US7939495B2, “Method for improving skin conditions” (Caregen Co., Ltd, priority 2005, dated 2011).

Assays:
NIH-3T3 cell = assay: stability in 50 mM Tris-HCl at 37° C., residual activity by MTT assay; type: physicochemical; settings: 50 mM Tris-HCl pH 8.0, 37° C., days 0-100, relative to day 0, FIG. 5
Procedure: To evaluate stability of the purified acetyl decapeptide of Example 10, the decapeptide and acetyl decapeptide were dissolved in 50 mM Tris-HCl (pH 8.0) to a concentration of 10 μg/ml. A recombinant bFGF produced E. coli (Sigma-Aldrich) was prepared as a control in the same buffer to a concentration of 1 μg/ml. The prepared solutions were introduced into glass vials and kept to stand at 37° C. Afterwards, the solutions were taken on days 0, 1, 10, 25, 50, 75 and 100 and subjected to MTT assay (Scudiero, D. A., et al. Cancer Res. 48:4827-4833 (1988)) using NIH-3T3 cell (Korean Cell Line Bank) to determine residual activities of peptides and bFGF (FIG. 5). The results were given as relative values to the activity (100%) of sample taken on day 0.

Balb C mice = assay: hair-growth activity after DHT treatment; type: in vivo; settings: observed on day 19 after hair removal; DHT 8 days, then 10 days treatment or none
Excerpt: The hairs of the back portions of Balb C mice were removed and a hair loss-inducing substance, dihydrotestosterone (DHT, TCI Inc.) was applied for 8 days to induce […] stage before the proliferation of kerationcytes.

hyaluronic acid = hyaluronic acid level in HaCaT cells (Hyaluronic acid ELISA kit); type: cell-based, human; settings: 1 μmole, FIG. 9
Procedure: (§1) Furthermore, HaCaT cell line was treated with the acetyl-decapeptide of this invention (1 μg/ml) and the level of procollagen, one of indicators to show the improvement in skin wrinkle, was examined (FIG. 8). The level of procollagen was measured using Procollagen ELISA kit (Takara). For verifying effects on levels of laminin and hyaluronic acid, another indicator representing the improvement in skin wrinkle, HaCaT cell line was incubated with the acetyl-decapeptide of this invention (1 μmole) and levels of laminin and hyaluronic acid were measured using Laminin ELISA kit (CHEMICON, USA) and Hyaluronic acid ELISA kit (Echelon Biosciences Inc, USA), respectively (FIG. 9).

[1] = tested on: receptor of basic fibroblast growth factor; assay: competitive binding assay with 125I-labeled bFGF on BHK cells; design: species or system hamster; settings: FIG. 3
Procedure: To examine the binding potency of the purified acetyl-decapepetide of Example 10 to the receptor of basic fibroblast growth factor, the competitive binding assay was carried out using baby hamster kidney cells (BHK, the Korean Cell Line Bank) and ^125I-labeled bFGF (Amersham) according to process proposed by Baird et al. (Baird, et al., Proc. Natl. Acad. Sci. USA, 85:2324-2328 (1988)). Cells were cultured in 48-well plates for tissue culture and washed with cold Ham's F12 medium containing 0.2% gelatin (Sigma-Aldrich). 200 fmol of ^125I-bFGF and 1-100 nmol of acetyl decapeptide were dissolved in 200 μl of buffer and incubated with cells for 2 hr. Following the collection of cells by centrifugation, the cell membranes were isolated using 0.1% Triton X-100 and the radioactivity of ^125I-bFGF bound to receptors on cell membrane was determined using a gamma scintillation counter (Packard, U.S.A) (FIG. 3).

HaCaT keratinocytes = assay: SRB colorimetric assay of HaCaT keratinocyte growth; type: cell-based, human; settings: 10 ng/ml or 1,000 ng/ml, 72 hr, FIGS. 6 and 7
Procedure: To analyze effects of peptides of this invention on proliferation of keratinocytes, SRB (Sulforhodamine B) calorimetric assay was carried out using HaCaT kerationcyte according to Rizzino et al method (Rizzino, et al. Cancer Res., 48:4266 (1988)). HaCaT ketatinocytes (The Korean Cell Line Bank) were cultured in 250 ml-flasks containing EMEM (Eagle's minimal essential media, Gibco, U.S.A.) supplemented with […] (fetal bovine serum). HaCaT ketatinocytes cultured were treated with 0.25% trypsin solution to detach cells from the bottom of culture flasks and centrifuged to collect cell pellets. Cells were resuspended in EMEM not containing FBS, its aliquot (4×10^3) cells was added to each well of 96-well plates and cultured under 7% CO2 for 24 hr at 37° C. After 24-hr culture, the medium was changed with a fresh medium not containing serum and cells were incubated with bFGF or the acetyl-decapeptide of Example 10 (10 ng/ml or 1,000 ng/ml) dissolved in 10% DMSO for 72 hr under the same conditions as described above. After removing supernatants, cells were washed once using PBS (phosphate buffered saline) and incubated with SRB solution (Sigma-Aldrich). Cells were washed with PBS and observed under a microscope to find cell viability. In addition, absorbance at 590 nm was measured to analyze cell proliferation (FIG. 6). […]

procollagen = procollagen level in HaCaT cells (Procollagen ELISA kit); type: cell-based, human; settings: 1 μg/ml, FIG. 8
Procedure: as §1

laminin = laminin level in HaCaT cells (Laminin ELISA kit); type: cell-based, human; settings: 1 μmole, FIG. 9
Procedure: as §1

3T3 fibroblast = assay: [3H]-thymidine incorporation in 3T3 fibroblast; type: cell-based; settings: 3T3 cells, 2 ng/ml serially diluted two-fold, FIG. 4
Procedure: The biological activities of the purified acetyl-decapepetide of Example 10 were evaluated using 3T3 fibroblast (The Korean Cell Line Bank) according to Rizzino et al method to measure [^3H]-thymidine incorporation (Rizzino, et al. Cancer Res., 48:4266 (1988)). 3T3 cells were cultured in 250 ml-flasks containing EMEM (Eagle's minimal essential media, Gibco, U.S.A.) supplemented with […] (fetal bovine serum). 3T3 cells cultured were treated with 0.25% trypsin solution to detach cells from the bottom of culture flasks and centrifuged to collect cell pellets. Cells were resuspended in EMEM not containing FBS, its aliquot, 2×10^4 cells/0.3 ml medium was added to each well of 24-well plates and cultured under 7% CO2 for 24 hr at 37° C. 2 ng/ml of the acetyl decapeptide of this invention was serially diluted by two-fold using EMEM containing 0.2 (w/v) % bovine serum albumin and 0.3 ml of the diluted peptide was added to each well, followed by additional culturing under 7% CO2 for 6 hr at 37° C. Afterwards, 0.5 μCi of [^3H]-thymidine (Amersham, TRK 686, 68 Ci/mmol) was added to each well and incubated overnight. […] The dried filters were added along with 2 ml of scintillation cocktail to scintillation vials and allowed to stand for 30 min at room temperature, after which radioactivity incorporated into cells was determined using a scintillation counter (Beckman, U.S.A).

**Q.** For “decapeptide: unprotected bFGF-derived decapeptide, presumably the amino acid sequence of SEQ ID NO:1 (YRSRKYTSWY) (peptide having functions and actions of basic fibroblast growth factor)”, which “residual activity over time (stability)” value (NIH-3T3 cell) is on record?
**A.** The value was “not to be decreased over time”.

**Q.** Which hair growth (Balb C mice) does the source give for `C[C@]12CCC(=O)C[C@@H]1CC[C@@H]1[C@@H]2CC[C@]2(C)[C@@H](O)CC[C@@H]12` [DHT, dihydrotestosterone] here?
**A.** Its hair growth is “hair growth was barely observed”.

**Q.** How did the “level of hyaluronic acid” value (hyaluronic acid) turn out when Ac-YRSRKYTSWY-OH [acetyl decapeptide] was run?
**A.** Its value is “induce the elevation of levels of laminin and hyaluronic acid”.

**Q.** What about the “residual activity over time (stability)” value (NIH-3T3 cell) of the same molecule?
**A.** The value was “excellent stability”.

**Q.** And the “binding to bFGF receptor in competition with 125I-bFGF” value ([1]; 200 fmol 125I-bFGF, 1-100 nmol peptide, 2 hr)?
**A.** The value was “binds to bFGF receptor in a competitive manner with bFGF”.

**Q.** What about the “binding potency to bFGF receptor” value [1] of the same molecule?
**A.** The value was “higher binding potency”.

**Q.** What about the “cell viability / proliferation of HaCaT keratinocytes” value (HaCaT keratinocytes) of the same molecule?
**A.** The value was “much higher cell viability than control”.

**Q.** And the “level of procollagen in cells” value (procollagen)?
**A.** The value was “increased in a time-dependent manner”.

**Q.** And the level of laminin (laminin)?
**A.** Its level of laminin is “induce the elevation of levels of laminin and hyaluronic acid”.

**Q.** And the “[3H]-thymidine incorporation into fibroblasts” value (3T3 fibroblast)?
**A.** Its value is “promotes thymidine incorporation into fibroblasts in a dose-dependent fashion”.

**Q.** “recombinant bFGF: recombinant bFGF produced E. coli (Sigma-Aldrich), prepared as a control” was tested. Which “residual activity over time (stability)” value (NIH-3T3 cell) did it give?
**A.** Its value is “sharply decreased with the lapse of time”.
